Assay results reported in DBAASP.
Converted amounts (≈) assume the structure as drawn.

Legend:
Experiment in all cases: ≥ marks a high value that may be exact or a test limit, other limits are often not marked, values filed in µg/mL are converted to µM
Bacillus subtilis = test system: Bacillus subtilis
Escherichia coli = test system: Escherichia coli
Klebsiella pneumoniae = test system: Klebsiella pneumoniae
Micrococcus luteus = test system: Micrococcus luteus
Proteus mirabilis = test system: Proteus mirabilis
Pseudomonas aeruginosa = test system: Pseudomonas aeruginosa
Salmonella typhimurium = test system: Salmonella typhimurium
Shigella dysenteriae = test system: Shigella dysenteriae
Staphylococcus aureus = test system: Staphylococcus aureus
[1] = test system: Staphylococcus epidermidis
Candida albicans = test system: Candida albicans
Saccharomyces cerevisiae = test system: Saccharomyces cerevisiae
Serratia marcescens = test system: Serratia marcescens
Escherichia coli HB101 = test system: Escherichia coli HB101
[2] = test system: Clavibacter michiganensis subsp. michiganensis DSM 46294
[3] = test system: Pectobacterium carotovorum subsp. carotovorum DSM 30168
[4] = test system: Pseudomonas corrugata DSM 7228
[5] = test system: Pseudomonas syringae pv. syringae DSM 10604
[6] = test system: Pseudomonas syringae pv. tomato DC3000
[7] = test system: Xanthomonas vesicatoria DSM 50861
[8] = test system: Enterococcus faecalis ATCC 29212
[9] = test system: Escherichia coli ATCC 25922
[10] = test system: Salmonella enterica subsp. enterica serovar Pullorum C79-13
[11] = test system: Salmonella enterica subsp. enterica serovar Typhimurium C77-31
[12] = test system: Staphylococcus aureus ATCC 29213
[13] = test system: Staphylococcus epidermidis ATCC 12228

SMILES | MIC (Bacillus subtilis) | MIC (Escherichia coli) | MIC (Klebsiella pneumoniae) | MIC (Micrococcus luteus) | MIC (Proteus mirabilis) | MIC (Pseudomonas aeruginosa) | MIC (Salmonella typhimurium) | MIC (Shigella dysenteriae) | MIC (Staphylococcus aureus) | MIC [1] | MIC [2] | MIC [3] | MIC [4] | MIC [5] | MIC [6] | MIC [7] | other results
CC(C)C[C@H](NC(=O)[C@H](C)NC(=O)CNC(=O)[C@H](CC(C)C)NC(=O)[C@@H](N)Cc1ccccc1)C(=O)N[C@@H](Cc1ccccc1)C(=O)N[C@@H](CCCCN)C(=O)N[C@H](C(=O)N[C@@H](C)C(=O)N[C@@H](CO)C(=O)N[C@@H](CCCCN)C(=O)O)C(C)C [FLGALFKVASK] | ≥ 169 µM | > 169 µM | > 169 µM | ≥ 169 µM | ≥ 169 µM | > 169 µM | ≥ 169 µM | ≥ 169 µM | > 169 µM | ≥ 169 µM | – | – | – | – | – | – | –
CC(C)C[C@H](NC(=O)CNC(=O)[C@H](CC(C)C)NC(=O)[C@@H](N)Cc1ccccc1)C(=O)N[C@@H](CC(C)C)C(=O)N[C@@H](Cc1ccccc1)C(=O)N[C@@H](CCCCN)C(=O)N[C@H](C(=O)N[C@@H](C)C(=O)N[C@@H](CO)C(=O)N[C@@H](CCCCN)C(=O)O)C(C)C [FLGLLFKVASK] | ≥ 40.9 µM | 164 µM (≈ 200 µg/mL) | 81.8 µM (≈ 100 µg/mL) | 10.2 µM (≈ 12.5 µg/mL) | ≥ 164 µM | > 164 µM | ≥ 164 µM | ≥ 164 µM | 20.4 µM (≈ 25 µg/mL) | ≥ 40.9 µM | – | – | – | – | – | – | –
CC(C)C[C@H](NC(=O)[C@@H](NC(=O)[C@H](CCCCN)NC(=O)[C@H](CO)NC(=O)[C@H](C)NC(=O)[C@@H](NC(=O)[C@H](CCCCN)NC(=O)[C@H](Cc1ccccc1)NC(=O)[C@H](CC(C)C)NC(=O)[C@H](C)NC(=O)[C@H](CCCCN)NC(=O)[C@H](CC(C)C)NC(=O)[C@@H](N)Cc1ccccc1)C(C)C)C(C)C)C(=O)O [FLKALFKVASKVL] | 8.54 µM (≈ 12.5 µg/mL) | 4.3 µM (≈ 6.3 µg/mL) | 2.12 µM (≈ 3.1 µg/mL) | 2.12 µM (≈ 3.1 µg/mL) | ≥ 137 µM | 17.1 µM (≈ 25 µg/mL) | 8.54 µM (≈ 12.5 µg/mL) | 4.3 µM (≈ 6.3 µg/mL) | 2.12 µM (≈ 3.1 µg/mL) | 2.12 µM (≈ 3.1 µg/mL) | – | – | – | – | – | – | –
CC[C@H](C)[C@H](NC(=O)CN)C(=O)N[C@@H](CC(C)C)C(=O)N[C@@H](CC(=O)O)C(=O)N[C@H](C(=O)N[C@@H](CC(C)C)C(=O)N[C@@H](CCCCN)C(=O)N[C@@H](CCC(N)=O)C(=O)N[C@@H](Cc1ccccc1)C(=O)N[C@@H](C)C(=O)N[C@@H](CCCCN)C(=O)NCC(=O)N[C@H](C(=O)NCC(=O)N[C@@H](CCCCN)C(=O)N[C@@H](CC(=O)O)C(=O)N[C@@H](CC(C)C)C(=O)N[C@H](C(=O)N[C@@H](CCCCN)C(=O)NCC(=O)N[C@@H](C)C(=O)N[C@@H](C)C(=O)N[C@@H](CCC(N)=O)C(=O)NCC(=O)N[C@H](C(=O)N[C@@H](CC(C)C)C(=O)N[C@@H](CO)C(=O)N[C@H](C(=O)O)[C@@H](C)O)C(C)C)C(C)C)C(C)C)[C@@H](C)O [GILDTLKQFAKGVGKDLVKGAAQGVLST] | 17.8 µM (≈ 50 µg/mL) | 8.88 µM (≈ 25 µg/mL) | – | 0.888 µM (≈ 2.5 µg/mL) | ≥ 35.5 µM | 17.8 µM (≈ 50 µg/mL) | 26.6 µM (≈ 75 µg/mL) | 8.88 µM (≈ 25 µg/mL) | – | 17.8 µM (≈ 50 µg/mL) | – | – | – | – | – | – | MIC (Candida albicans): > 35.5 µM; MIC (Saccharomyces cerevisiae): 8.88 µM (≈ 25 µg/mL); MIC (Serratia marcescens): ≥ 35.5 µM
CC[C@H](C)[C@H](NC(=O)[C@@H](NC(=O)[C@@H]1CCCN1C(=O)[C@@H](NC(=O)[C@@H]1CCCN1C(=O)[C@H](CCCCN)NC(=O)[C@H](CCCCN)NC(=O)[C@H](CO)NC(=O)CN)C(C)C)[C@@H](C)CC)C(=O)N[C@@H](Cc1ccc(O)cc1)C(=O)N[C@H]1CSSC[C@@H](C(=O)N[C@@H](CCC(N)=O)C(=O)N[C@@H](CCCN=C(N)N)C(=O)N[C@@H](CCSC)C(=O)O)NC(=O)[C@H](CCCCN)NC(=O)[C@H](CCCN=C(N)N)NC(=O)[C@H](CCCN=C(N)N)NC(=O)[C@H](CC(N)=O)NC1=O [GSKKPVPIIYCNRRKCQRM] | 5.2 µM (≈ 11.8 µg/mL) | – | – | – | – | 10.4 µM (≈ 23.7 µg/mL) | 1.3 µM (≈ 2.96 µg/mL) | – | 10.4 µM (≈ 23.7 µg/mL) | – | – | – | – | – | – | – | MIC (Escherichia coli HB101): 2.6 µM (≈ 5.92 µg/mL)
CC[C@H](C)[C@H](NC(=O)[C@H](CC(C)C)NC(=O)[C@H](CCCCN)NC(=O)[C@@H](NC(=O)[C@@H](NC(=O)[C@H](CC(C)C)NC(=O)[C@H](CCCCN)NC(=O)[C@H](CC(C)C)NC(=O)[C@@H](NC(=O)[C@H](CCCN=C(N)N)NC(=O)[C@@H](NC(=O)[C@H](CC(C)C)NC(=O)[C@@H](NC(=O)[C@H](CCCN=C(N)N)NC(=O)[C@H](CCCN=C(N)N)NC(=O)[C@@H](N)CCCCN)[C@@H](C)CC)[C@@H](C)CC)[C@@H](C)CC)[C@@H](C)CC)[C@@H](C)CC)C(=O)N[C@@H](CC(C)C)C(=O)N[C@@H](CCCCN)C(=O)N[C@@H](CCCCN)C(=O)N[C@@H](CCCN=C(N)N)C(N)=O [KRRILIRILKLIIKLILKKR] | – | – | – | – | – | – | – | – | – | – | 0.989 µM (≈ 2.5 µg/mL) | 3.96 µM (≈ 10 µg/mL) | 3.96 µM (≈ 10 µg/mL) | 3.96 µM (≈ 10 µg/mL) | 0.989 µM (≈ 2.5 µg/mL) | 0.396 µM (≈ 1 µg/mL) | –
CC(C)C[C@H](NC(=O)[C@H](C)NC(=O)[C@H](CCCN=C(N)N)NC(=O)[C@H](CCCN=C(N)N)NC(=O)[C@H](C)NC(=O)[C@H](Cc1ccccc1)NC(=O)[C@H](CCCN=C(N)N)NC(=O)[C@@H](N)CC(C)C)C(=O)N[C@@H](CCCN=C(N)N)C(=O)N[C@@H](CCCN=C(N)N)C(=O)N[C@@H](CC(C)C)C(=O)N[C@@H](Cc1ccccc1)C(N)=O [LRFARRALRRLF] | – | – | – | – | – | – | – | – | – | – | 0.635 µM (≈ 0.999 µg/mL) | 1.59 µM (≈ 2.5 µg/mL) | 0.318 µM (≈ 0.5 µg/mL) | 0.159 µM (≈ 0.25 µg/mL) | 0.159 µM (≈ 0.25 µg/mL) | 0.635 µM (≈ 0.999 µg/mL) | –
CC(C)C[C@H](NC(=O)[C@@H](NC(=O)[C@@H](NC(=O)[C@@H](N)CC(C)C)C(C)C)[C@@H](C)O)C(=O)N[C@H](C(=O)N[C@@H](Cc1ccccc1)C(=O)N[C@H](C(=O)NCC(=O)NCC(=O)NCC(=O)N[C@@H](Cc1c[nH]c2ccccc12)C(=O)N[C@@H](CCCCN)C(=O)N[C@@H](Cc1c[nH]c2ccccc12)C(=O)N[C@@H](CCCCN)C(=O)N[C@@H](Cc1c[nH]c2ccccc12)C(=O)N[C@@H](CCC(=O)O)C(=O)N[C@@H](CC(N)=O)C(=O)NCC(=O)N[C@@H](CCCCN)C(=O)N[C@@H](Cc1c[nH]c2ccccc12)C(=O)N[C@@H](CCCCN)C(=O)N[C@@H](Cc1c[nH]c2ccccc12)C(=O)N[C@@H](CCC(N)=O)C(=O)N[C@@H](Cc1c[nH]c2ccccc12)C(=O)O)C(C)C)C(C)C [LVTLVFVGGGWKWKWENGKWKWQW] | – | – | – | – | – | – | – | – | – | – | – | – | – | – | – | – | MIC [8]: > 128 µM; MIC [9]: > 128 µM; MIC [10]: ≥ 128 µM; MIC [11]: ≥ 128 µM; MIC [12]: > 128 µM; MIC [13]: > 128 µM
CC(C)C[C@H](NC(=O)[C@H](CC(C)C)NC(=O)[C@H](CCCN=C(N)N)NC(=O)[C@H](CCCCN)NC(=O)[C@H](CC(C)C)NC(=O)[C@H](CC(C)C)NC(=O)[C@H](CCCCN)NC(=O)[C@H](CCCCN)NC(=O)[C@H](CCCN=C(N)N)NC(=O)[C@H](CCCCN)NC(=O)[C@H](CCCCN)NC(=O)[C@@H](N)CCCN=C(N)N)C(N)=O [RKKRKKLLKRLL] | – | – | – | – | – | – | – | – | – | – | 3.16 µM (≈ 5 µg/mL) | 6.33 µM (≈ 9.99 µg/mL) | 0.158 µM (≈ 0.25 µg/mL) | 0.0633 µM (≈ 0.1 µg/mL) | 0.633 µM (≈ 0.999 µg/mL) | 3.16 µM (≈ 5 µg/mL) | –
CC[C@H](C)[C@H](NC(=O)[C@H](CCCN=C(N)N)NC(=O)[C@@H](N)CCCN=C(N)N)C(=O)N[C@@H](CCCN=C(N)N)C(=O)N1CCC[C@H]1C(=O)N[C@@H](CCCN=C(N)N)C(=O)N1CCC[C@H]1C(=O)N[C@@H](CCCN=C(N)N)C(=O)N[C@@H](CS)C(=O)O [RRIRPRPRC] | – | – | – | – | – | – | – | – | – | – | – | – | – | – | – | – | MIC [9]: > 128 µM; MIC (Escherichia coli HB101): ≥ 128 µM
